Experimental data from the NIST ThermoML archive (doi:10.1021/je800616p).

Experiment: mn = molality of the nth substance listed, in mol/kg
Conditions: 101 kPa, Liquid; for viscosity: Capillary tube (Ostwald / Ubbelohde) method; for mass density: Vibrating tube method

NC(=O)c1ccccc1O [2-hydroxybenzamide] + CO
Conditions | mass density [kg/m3] | viscosity [mPa·s]
293.15 K, m1 = 0.0095 | 792.015 | 0.597
293.15 K, m1 = 0.0126 | 792.215 | 0.5976
293.15 K, m1 = 0.0158 | 792.352 | 0.5981
293.15 K, m1 = 0.019 | 792.555 | 0.5987
293.15 K, m1 = 0.0221 | 792.688 | 0.5993
293.15 K, m1 = 0.0253 | 792.801 | 0.5997
293.15 K, m1 = 0.0317 | 792.965 | 0.6008
298.15 K, m1 = 0.0095 | 787.285 | 0.5471
298.15 K, m1 = 0.0126 | 787.479 | 0.5475
298.15 K, m1 = 0.0158 | 787.615 | 0.548
298.15 K, m1 = 0.019 | 787.819 | 0.5485
298.15 K, m1 = 0.0222 | 787.921 | 0.549
298.15 K, m1 = 0.0253 | 788.019 | 0.5495
298.15 K, m1 = 0.0317 | 788.218 | 0.5503
303.15 K, m1 = 0.0095 | 782.541 | 0.5003
303.15 K, m1 = 0.0127 | 782.725 | 0.5005
303.15 K, m1 = 0.0159 | 782.859 | 0.5007
303.15 K, m1 = 0.0191 | 783.029 | 0.5009
303.15 K, m1 = 0.0223 | 783.149 | 0.5012
303.15 K, m1 = 0.0255 | 783.261 | 0.5015
303.15 K, m1 = 0.0319 | 783.449 | 0.5019
308.15 K, m1 = 0.0096 | 777.775 | 0.4852
308.15 K, m1 = 0.0128 | 777.951 | 0.4853
308.15 K, m1 = 0.016 | 778.085 | 0.4855
308.15 K, m1 = 0.0192 | 778.255 | 0.4857
308.15 K, m1 = 0.0224 | 778.368 | 0.4859
308.15 K, m1 = 0.0256 | 778.495 | 0.4862
308.15 K, m1 = 0.0321 | 778.659 | 0.4866
310.15 K, m1 = 0.0097 | 775.881 | 0.4602
310.15 K, m1 = 0.0129 | 776.055 | 0.4603
310.15 K, m1 = 0.0161 | 776.195 | 0.4604
310.15 K, m1 = 0.0193 | 776.355 | 0.4607
310.15 K, m1 = 0.0218 | 776.449 | 0.4608
310.15 K, m1 = 0.0258 | 776.585 | 0.4609
310.15 K, m1 = 0.0323 | 776.765 | 0.4612
313.15 K, m1 = 0.0097 | 775.744 | 0.4502
313.15 K, m1 = 0.013 | 775.898 | 0.4503
313.15 K, m1 = 0.0162 | 776.045 | 0.4504
313.15 K, m1 = 0.0194 | 776.165 | 0.4506
313.15 K, m1 = 0.0227 | 776.285 | 0.4508
313.15 K, m1 = 0.0259 | 776.375 | 0.4509
313.15 K, m1 = 0.0325 | 776.558 | 0.4511
